One data set deals with PARP5A (Homo sapiens (Human), UniProt O95271). In words: PARP5A enzyme activity test. The format is biochemical.
The test system of data set [1] is MDA-MB-436 subcutaneous transplanted tumor. In words: Mouse MDA-MB-436 subcutaneous in vivo transplanted tumor model.
Description: Human breast cancer MDA-MB-436 cells were placed in Leibovitz's L-15 medium (supplemented with 10 μg/mL insulin, 16 μg/mL glutathione, 10% fetal bovine serum and 1% double antibody) and cultured at 37° C. Conventional digestion treatment with trypsin was carried out twice a week for passage. When the cell saturation was 80%-90%, and the number reached the requirement, the cells were collected, counted, and inoculated. BALB/c nude mice (from Beijing Vital River Laboratory Animal Technology Co., Ltd.) were subcutaneously inoculated with 0.2 mL (10×10^6) of MDA-MB-436 cells (plus matrigel, with the volume ratio of 1:1) on the right back. When the average tumor volume reached about 180 mm^3, grouping and administration were performed (marked as Day 0). […] The administration frequency was once a day, the administration cycle was 29 days, and the drug withdrawal observation period was set to 14 days. After grouping, the tumor diameter was measured twice a week with a vernier caliper. The formula for calculating the tumor volume was: V=0.5×a×b^2, where a and b represented the long and short diameters of the tumor, respectively.
The next data set deals with PARP15 (Homo sapiens (Human), UniProt Q460N3). In words: PARP15 enzyme activity test. The format is biochemical.
Another data set has as its target PARP5B (Homo sapiens (Human), UniProt Q9H2K2). In words: PARP5B enzyme activity test. The format is biochemical.
Data set [2] is described as follows: Pharmacokinetic test in rats. To be noted: male SD rats. The format is in vivo, rat. As to the method:
• 1.1 Experimental animals: male SD rats, about 220 g, 6-8 weeks old, 6 rats/compound, purchased from Chengdu Ddossy Experimental Animals Co., Ltd. • 1.2 Experimental design: on the day of the test, 6 SD rats were randomly grouped according to their body weight; the animals were fasted with water available for 12 to 14 h one day before the administration, and were fed 4 h after the administration.
Before and after the administration, 0.15 mL of blood was taken from the orbit of the animals under isoflurane anesthesia and placed in an EDTAK2 centrifuge tube. The blood was centrifuged at 5000 rpm and 4° C. for 10 min to collect plasma. The blood collection time points for the intravenous administration group and intragastric administration group were: 0, 5 min, 15 min, 30 min, 1 h, 2 h, 4 h, 6 h, 8 h, and 24 h. Before analysis and detection, all samples were stored at −80° C. The samples were analyzed quantitatively by LC-MS/MS.

The target of another data set is PARP7 (Homo sapiens (Human), UniProt Q7Z3E1). In words: PARP7 enzyme activity test. The format is biochemical.
Chain of PARP7 (Q7Z3E1 whole entry): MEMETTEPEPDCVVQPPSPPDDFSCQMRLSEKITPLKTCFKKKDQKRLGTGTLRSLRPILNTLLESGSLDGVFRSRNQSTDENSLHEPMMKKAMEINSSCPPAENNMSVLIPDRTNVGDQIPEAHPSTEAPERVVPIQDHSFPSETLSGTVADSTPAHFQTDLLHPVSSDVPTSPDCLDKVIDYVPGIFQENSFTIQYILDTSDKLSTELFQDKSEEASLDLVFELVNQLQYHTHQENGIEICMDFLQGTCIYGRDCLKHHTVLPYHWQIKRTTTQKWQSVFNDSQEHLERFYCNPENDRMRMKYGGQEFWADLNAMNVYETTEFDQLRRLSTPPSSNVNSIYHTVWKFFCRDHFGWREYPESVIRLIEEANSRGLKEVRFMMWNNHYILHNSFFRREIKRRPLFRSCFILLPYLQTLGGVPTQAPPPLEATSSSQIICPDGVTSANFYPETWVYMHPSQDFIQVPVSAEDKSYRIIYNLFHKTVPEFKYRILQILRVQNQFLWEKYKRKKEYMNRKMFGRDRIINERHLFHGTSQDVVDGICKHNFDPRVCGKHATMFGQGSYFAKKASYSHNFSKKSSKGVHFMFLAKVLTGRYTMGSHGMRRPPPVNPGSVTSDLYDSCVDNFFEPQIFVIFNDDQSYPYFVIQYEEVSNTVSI
The test system of data set [3] is Human breast cancer MDA-MB-231 cells. In words: MDA-MB-231 cell proliferation inhibition test (CellTiter-Glo, 7 days). The class given is cell-based. To be noted: MDA-MB-231, 168 h, 7 days incubation. As to the method: (§1) The cells in the exponential growth phase were collected, and the cell suspension was adjusted to 1500 cells/135 μL with the culture medium. 135 μL of the cell suspension was added to each well of a 96-well cell culture plate and incubated overnight. On day 2, compounds at different concentrations were added, and the plate was placed in the incubator and incubated for 7 days. After the incubation was completed, according to operation instructions for a CellTiter-Glo kit (Promega, Cat #G7573), 75 μL of CTG solution, which was already pre-melted and equilibrated to room temperature, was added to each well, and the mixture was uniformly mixed for 2 min using a microplate shaker. The plate was placed at room temperature for 10 min, and then […] signal values were measured using an Envision 2104 plate reader (PerkinElmer).

Data set [4] relates to breast tumor cells MDA-MB-436. In words: MDA-MB-436 cell activity test (CellTiter-Glo, 7 days). The format is cell-based. To be noted: Homo sapiens, MDA-MB-436, 168 h, 7 days incubation. As to the method:
as §1, with “Breast tumor cells MDA-MB-436 were purchased from ATCC, the culture medium was Leibovitz's L-15+10% FBS, and the cells were cultured in a CO2-free incubator at 37° C. On day 1, the cells” for “The cells”, “to 4000” for “to 1500”, “(Promega, G7573),” for “(Promega, Cat #G7573),”, “an Envision2104” for “an Envision 2104”, “(PerkinElmer). The inhibition rate was calculated using formula (1), where RLUcompound was the readout of the drug treated group, RLUcontrol was the average value of the vehicle control group, and RLUblank was the average value of the cell-free well. The IC50 value was calculated using GraphPad Prism software.” for “(PerkinElmer).”
(In general: In ATP-based viability assays light output follows the ATP content of the culture.)

The mark [5] stands for this setting: Sprague-Dawley (SD), rat, iv, i.v. 2.5 mg/kg, plasma.

Chain of PARP15 (Q460N3 whole entry): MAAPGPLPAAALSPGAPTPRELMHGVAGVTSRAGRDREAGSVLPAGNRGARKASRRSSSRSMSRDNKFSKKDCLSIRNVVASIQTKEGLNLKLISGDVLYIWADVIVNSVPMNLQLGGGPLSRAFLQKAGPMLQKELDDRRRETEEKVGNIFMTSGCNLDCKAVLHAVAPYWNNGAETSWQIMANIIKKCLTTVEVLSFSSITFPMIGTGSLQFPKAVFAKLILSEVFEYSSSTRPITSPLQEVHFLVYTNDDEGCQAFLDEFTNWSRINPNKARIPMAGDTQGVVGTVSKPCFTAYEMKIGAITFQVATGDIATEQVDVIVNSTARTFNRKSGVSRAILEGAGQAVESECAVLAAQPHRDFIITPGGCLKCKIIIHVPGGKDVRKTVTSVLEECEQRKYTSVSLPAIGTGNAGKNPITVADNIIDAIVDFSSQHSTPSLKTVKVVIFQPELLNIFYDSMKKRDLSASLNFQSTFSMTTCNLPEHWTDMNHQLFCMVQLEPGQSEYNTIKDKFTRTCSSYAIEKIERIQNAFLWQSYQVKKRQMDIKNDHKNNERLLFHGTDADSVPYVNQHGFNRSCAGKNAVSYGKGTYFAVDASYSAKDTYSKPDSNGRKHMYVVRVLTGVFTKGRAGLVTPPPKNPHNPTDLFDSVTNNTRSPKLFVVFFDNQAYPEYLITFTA
Chain of PARP5A (O95271 1001-1327 limits assumed): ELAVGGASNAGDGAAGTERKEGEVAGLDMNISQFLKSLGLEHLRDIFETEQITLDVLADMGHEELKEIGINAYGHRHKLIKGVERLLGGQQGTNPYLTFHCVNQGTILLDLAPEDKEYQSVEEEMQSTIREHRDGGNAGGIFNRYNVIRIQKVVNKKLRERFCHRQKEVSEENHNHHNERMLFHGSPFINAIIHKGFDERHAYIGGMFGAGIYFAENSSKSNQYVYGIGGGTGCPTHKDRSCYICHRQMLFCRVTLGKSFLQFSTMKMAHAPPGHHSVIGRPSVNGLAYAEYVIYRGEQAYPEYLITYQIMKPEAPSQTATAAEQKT
Chain of PARP5B (Q9H2K2 667-1166 limits assumed): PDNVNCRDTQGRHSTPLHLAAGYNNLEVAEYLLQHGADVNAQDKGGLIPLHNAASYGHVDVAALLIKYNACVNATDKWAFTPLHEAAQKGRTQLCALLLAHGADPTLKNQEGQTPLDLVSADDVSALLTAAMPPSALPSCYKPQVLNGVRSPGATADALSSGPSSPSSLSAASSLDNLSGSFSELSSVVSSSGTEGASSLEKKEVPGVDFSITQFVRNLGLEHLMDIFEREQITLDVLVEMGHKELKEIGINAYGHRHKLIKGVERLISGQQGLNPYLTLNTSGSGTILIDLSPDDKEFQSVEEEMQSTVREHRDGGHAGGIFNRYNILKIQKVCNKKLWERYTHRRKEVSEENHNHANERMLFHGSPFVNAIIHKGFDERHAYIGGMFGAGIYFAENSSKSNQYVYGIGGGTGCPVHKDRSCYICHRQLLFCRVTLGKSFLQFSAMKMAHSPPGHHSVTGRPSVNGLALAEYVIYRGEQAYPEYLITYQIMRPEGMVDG
Description for PARP15: (§2) PARP2, PARP5A, PARP5B, PARP6, PARP7, PARP14 and PARP15 chemical fluorescence detection kits were purchased from BPS Bioscience. The histone solution in the kit was diluted 5× with 1×PBS, and 25 μL of the diluted histone solution was added to a microwell plate and incubated overnight at 4° C. After the incubation, the plate was washed three times with PBST (0.05% Tween-20). 100 μL of the blocking solution was added to the microwell plate and incubated at 25° C. for 90 minutes. After the incubation, the plate was washed three times with PBST. […] 5 μL of the diluted PARP enzyme was added to the microwell plate, and the reaction system was incubated at 25° C. for 60 minutes.
(§3) After the incubation, the plate was washed three times with PBST. Streptavidin-HRP was diluted 50× with a blocking solution, and 25 μL of the diluent was added to the microwell plate and incubated at 25° C. for 30 minutes. After the incubation, the plate was washed three times with PBST. ELISA ECL substrate A and substrate B were mixed at a ratio of 1:1 (v/v), 25 μL of the mixture was added to the microwell plate, and the chemiluminescence value was read.
(§4) Curve fitting was performed by four parameters (log(inhibitor) vs. response—Variable slope) using GraphPad Prism software, and the IC50 value was calculated.
Description for PARP5A: as §2, §3, §4
Description for PARP5B: as §2, §3, §4
Description for PARP7: as §2, §3, §4

By IC50 is commonly meant the concentration needed to halve the response being measured. As a reminder, the AUC(0-t) is exposure summed from dosing to a finite time, without extrapolation to infinity. One may read the clearance as the volume of plasma or blood freed of the substance per unit of time. A high value points to a high capacity for elimination. For `CCc1cc2ncc(CN3CCN(c4ccc(C(=O)NC5CC5)nc4)CC3)cc2[nH]c1=O` [Compound 4, N-cyclopropyl-5-(4-((7-ethyl-6-oxo-5,6-dihydro-1,5-naphthyridin-3-yl)methyl)piperazin-1-yl)picolinamide], the concentration for half-maximal inhibition (IC50) came out at 6.08 µM at PARP5A; 4.3 µM at PARP15; 576 nM at PARP5B; 5.36 µM at PARP7; 15.9 µM in data set [3] (BRCA WT cells, read-out: MDA-MB-231 cell inhibitory activity IC50); 2 nM in data set [4] (read-out: MDA-MB-436 cell inhibitory activity IC50). In addition, in data set [1] (14 days drug withdrawal observation period), the “tumor growth after the drug withdrawal” value is given as “did not grow again”. For the same compound, the “body weight of the animals” value in data set [1] (BALB/c nude mice, once a day, Day 0-10: 1 mg/kg, Day 11-28: 0.1 mg/kg) is “no significant decrease in the body weight”. Besides, the TGI in data set [1] (BALB/c nude mice, once a day, Day 0-10: 1 mg/kg, Day 11-28: 0.1 mg/kg, after 28 days of administration) is recorded as 119%. Also, the exposure AUC(0-t) in data set [2] (setting [5]) was 46.6 ± 4.75 µg·h/mL; in data set [2] (Sprague-Dawley (SD), rat, po, i.g. 10 mg/kg, plasma), 184 ± 72.3 µg·h/mL. In addition, in data set [2] (setting [5]), the clearance came out at 0.896 ± 0.097 mL/min/kg. The Vd in data set [2] (Sprague-Dawley (SD), rat, iv, i.v. 2.5 mg/kg, plasma, read-out: Vdss) came out at 0.236 ± 0.022 L/kg. The same compound came in with a F in data set [2] (i.g. 10 mg/kg) of 98.8 ± 39%. Further, the inhibition at 10 µM in data set [3] (10 μM, read-out: MDA-MB-231 Max inh. % 10 μM) is 66.8%; in data set [4] (10 μM, read-out: MDA-MB-436 Max inh. % 10 μM) it was 89.4%.
